{
  "source": "patent US20140200137A1",
  "about": "“TREATMENT OF STORED TUBERS WITH COMPOSITIONS OF ALKYL NAPHTHALENES AND HIGHER ALCOHOLS” (1,4 Group, Inc., priority 2013, published 2014)",
  "key": {"[1]": {"test_system": "existing sprouts on post-dormant potatoes with peeps and sprouts extant", "assay": "Comparison of sprout suppressing chemicals applied by thermofogging (Example VII)", "format": "in vivo", "conditions": "for Burn “old”: effect upon old sprouts, up to nine months old; for Burn “old” / Burn “new”: thermofogging at comparable dosages; for Burn “new”: newly emerged sprouts and peeps, generally less than a month", "description": "Various sprout suppressing chemicals were compared for their ability to suppress existing sprouts on post-dormant potatoes with peeps and sprouts extant.\nIn the above table “Burn old” refers to the effect upon old sprouts, which included sprouts up to nine months old, these being generally more difficult to desiccate, while “burn new” refers to newly emerged sprouts and peeps, generally less than a month or so in existence."}, "[2]": {"test_system": "peeps and sprouts", "assay": "Fogging of 1-nonanol compared with clove oil in burning peeps and sprouts (Example V)", "format": "in vivo, potatoes", "conditions": "similar dosages"}, "[3]": {"test_system": "peeps and sprouts of stored potatoes", "assay": "General observations on treatment of stored potatoes with higher alcohols and 1,4-DMN", "format": "in vivo", "conditions": "24 hours after treatment all peeps and sprouts are burned", "description": "Higher alcohols, such as 1-octanol and 1-nonanol, are miscible with 1,4-DMN.\nIt has been observed that the dormancy-like effect produced upon stored potatoes by 1,4-DMN remains, at least to some degree, even as the residue of 1,4-DMN becomes undetectable. Thus, by proper timing of the last treatment of stored potatoes with 1,4-DMN and a subsequent treatment with 1-octanol, 1-nonanol or 1-hexanol, alcohols which are on the GRAS list, both the washed potatoes and any discharged wash water will have no harmful chemicals present. The action of higher alcohols, such as 1-octanol, 1-nonanol and 1-hexanol, on peeps and sprouts is rapid, so that 24 hours after treatment all peeps and sprouts are “burned.”"}, "[4]": {"test_system": "stored potatoes with white peeps showing from the eyes", "assay": "Thermofogging of 1-nonanol on bulk stored potatoes with white peeps (Example II)", "format": "in vivo", "conditions": "thermofogged at about 500° F., 8 ml for 2 kg of potatoes", "method": "Stored potatoes in bulk storage were treated with 1-nonanol (n-nonyl alcohol) via a thermofogger to determine sprout inhibition. The thermofogger was operated at an aerosol chamber temperature of about 500° F. A good stable aerosol was produced. The alcohol was applied at a dosage of 8 ml for 2 kg of potatoes. The system was open so that the actual dosage reaching the potatoes was considerably less than the fogged amount. In a first bulk storage, the potatoes had white “peeps” showing from the eyes."}, "[5]": {"test_system": "potatoes with sprouts averaging in excess of about 2 cm, some up to 8 cm or more", "assay": "Thermofogging on potatoes with very long sprouts (Examples III and IV)", "format": "in vivo", "conditions": "for kill of large sprouts: full strength", "method": "In another test, the potatoes were treated with 1-nonanol at the same fogging temperature and dosage for the same period of time to achieve the same application dosage as in Example II. The potatoes in this storage had sprouts averaging in excess of about 2 cm in length. In this experiment, potatoes with very long sprouts, some up to 8 cm or more, were treated 1, 2, and 4 times sequentially with full strength nonanol. This “spray-paint” method was used to try to bring the total amount (rate) of nonanol up to a level capable of killing large sprouts as well as peeps . . . a necessity in commercial settings where sprouts of all sizes exist. […] While this was a small scale test, a whole storage full of potatoes in this condition would likely lead to secondary decays.\nThe results of Example III led to another experiment where nonanol and DMN were applied."}, "[6]": {"test_system": "potatoes", "assay": "Thermofogging of 1-octanol on cold and warmer potatoes, damage to skin and flesh (Example IX)", "format": "in vivo", "method": "The 1-octanol was applied via an electrically […] thermofogger at a fog temperature within the fogger of about 500° F. to obtain a stable aerosol. The potatoes were examined about 24 hours after treatment. […] The potatoes were cut open at the dark spots. Damage to the flesh of the potatoes existed to a depth of about 5 mm to 25 mm. Potato flesh was otherwise undamaged except under the dark spots."}, "[7]": {"test_system": "sprouts on potatoes", "assay": "Mixtures of 1,4-DMN with octanol at various volumetric ratios, burn of sprouts (Example VIII)", "format": "in vivo", "set-up": "key: +++: Excellent effect; ++: Very good effect; +: Good effect; —: Negligible effect", "conditions": "total dosage of each mixture constant", "description": "All mixtures provided a more rapid burn of sprouts compared with an equal dosage of octanol or 1,4-DMN alone. The 7:1 ratio of octanol to DMN gave the best results in terms of length of non-sprouting condition before nascent sprouts again appeared."}, "[8]": {"test_system": "potatoes", "conditions": "in vivo; cited from earlier work"}},
  "data": [
    {"compound": "Cc1ccc(C)c2ccccc12", "note": "[1,4-DMN, 1,4 dimethyl naphthalene]", "values": [
      {"measurement": "Burn “old”", "setting": "[1]", "result": "+"},
      {"measurement": "Burn “new”", "setting": "[1]", "result": "+"}
    ]},
    {"compound": "CCCCCCCCCCO", "note": "[1-Decanol]", "values": [
      {"measurement": "Burn “old”", "setting": "[1]", "result": "++"},
      {"measurement": "Burn “new”", "setting": "[1]", "result": "++"}
    ]},
    {"compound": "CCCCCCCCCO", "note": "[1-Nonanol, 1-nonanol]", "values": [
      {"measurement": "Burn “old”", "setting": "[1]", "result": "+++"},
      {"measurement": "desiccation of existing peeps and sprouts, ranking in the test", "setting": "[1]; in vivo", "result": "most effectively desiccated existing peeps and sprouts"},
      {"measurement": "Burn “new”", "setting": "[1]", "result": "+++"},
      {"measurement": "effectiveness in burning peeps and sprouts relative to clove oil", "setting": "[2]", "result": "about four times as effective as clove oil"},
      {"measurement": "action on peeps and sprouts", "setting": "[3]", "result": "rapid"},
      {"measurement": "damage to potato flesh adjacent the eyes", "setting": "[4]", "result": "without any damage to potato flesh"},
      {"measurement": "effect on white peeps", "setting": "[4]; open system", "result": "burned to a dark color and were inactivated"},
      {"measurement": "negative side effect observed", "setting": "[5]; four sequential applications", "result": "wet, slimy, sprout rot"},
      {"measurement": "kill of large sprouts", "setting": "[5]; four sequential applications", "result": "completely killed"},
      {"measurement": "kill of large sprouts", "setting": "[5]; single or double applications", "result": "didn't reach a level of nonanol high enough to completely kill these sized sprouts"}
    ]},
    {"compound": "CCCCCCCCO", "note": "[1-Octanol, 1-octanol]", "values": [
      {"measurement": "Burn “old”", "setting": "[1]", "result": "++"},
      {"measurement": "Burn “new”", "setting": "[1]", "result": "+++"},
      {"measurement": "action on peeps and sprouts", "setting": "[3]", "result": "rapid"},
      {"measurement": "depth of damage to the flesh under the dark spots", "setting": "[6]; potato, in vivo, 24 h", "result": "5-25 mm"},
      {"measurement": "damage to potato skin", "setting": "[6]; potatoes at about 36° F., fog about 500° F., examined about 24 hours after treatment", "result": "large dark damaged spots"},
      {"measurement": "injury to potato skin or flesh", "setting": "[6]; potatoes held at 53° F., similar dosage, fogging temperature and rate", "result": "did not show injury to the potato skin or to its flesh"}
    ]},
    {"compound": "CCCCCCCCO", "note": "[1:0, octanol]", "values": [
      {"measurement": "Length of Burn", "setting": "[7]", "result": "+++"},
      {"measurement": "Rapid Burn", "setting": "[7]", "result": "++"}
    ]},
    {"compound": "CCCCC(CC)CO", "note": "(centres unmarked) [2-ethyl-hexan-1-01]", "values": [
      {"measurement": "results among alcohols tested by Burton", "setting": "[8]", "result": "Worst results"}
    ]},
    {"compound": "CCCCCOC(C)=O", "note": "[AmylAcetate, amyl acetate]", "values": [
      {"measurement": "Burn “new”", "setting": "[1]", "result": "++"}
    ]},
    {"compound": "CCCCCCCCCCCCO", "note": "[Dodecanol]", "values": [
      {"measurement": "Burn “old”", "setting": "[1]", "result": "−\\+"},
      {"measurement": "Burn “new”", "setting": "[1]", "result": "−"}
    ]},
    {"compound": "CCCCCCO", "note": "[Hexanol, 1-hexanol]", "values": [
      {"measurement": "Burn “old”", "setting": "[1]", "result": "+"},
      {"measurement": "Burn “new”", "setting": "[1]", "result": "++"},
      {"measurement": "action on peeps and sprouts", "setting": "[3]", "result": "rapid"}
    ]},
    {"compound": "CCCCCO", "note": "[amyl, amyl alcohol]", "values": [
      {"measurement": "results among alcohols tested by Burton", "setting": "[8]", "result": "Best results"}
    ]},
    {"compound": "CCCCCCO", "note": "[n-hexyl, n-hexyl alcohol]", "values": [
      {"measurement": "results among alcohols tested by Burton", "setting": "[8]", "result": "Worst results"}
    ]},
    {"compound": "CCCCCCCCCO", "note": "[nonyl, nonyl alcohol]", "values": [
      {"measurement": "results among alcohols tested by Burton", "setting": "[8]", "result": "Best results"}
    ]}
  ]
}
